Assays:
[1] = tested on: pooled normal plasma; experiment: Thrombelastographic coagulation kinetics, Celite-activated normal plasma; format: biochemical, human; details: 100 μM, mean ± SD, n=8
Protocol: Pooled normal plasma (George King Bio-Medical, Overland Park, Kans.) anticoagulated with sodium citrate was utilized for experimentation. […] Factor XIII (FXIII) deficient plasma anticoagulated with sodium citrate was also obtained from George King Bio-Medical (Overland Park, Kans.).
Plasma Sample Composition. The final volume for all subsequently described plasma sample mixtures was 359.4 μL. […] (Motterlini et al., Expert Opin Investig Drugs, 14:1305-1318 (2005), which is incorporated by reference herein in its entirety).
Clot Lifespan Model Analyses. Plasma sample mixtures were placed in a disposable cup in a computer-controlled THROMBELASTOGRAPH® hemostasis system (Model 5000, Haemoscope Corp., Niles, Ill.), with addition of CaCl2 as the last step to initiate clotting. Data were collected for 15 minutes, as normal plasma completes thrombus formation within this interval in this system (Dong et al., Eur J Pharmacol 590:99-104 (2008)).
Statistical Analyses. Data are presented as mean±SD. All conditions described were represented with n=8 experiments, as n=6-8 typically provides statistical power>0.8 in similar analyses (Nielsen et al., Acta Anaesthesiol Scand 49:222-231 (2005) and Nielsen et al., Blood Coagul Fibrinolysis 17:75-81 (2006)). Analyses of the effects of CORM-2 and iCORM-2 on thrombelastographic variables were conducted using one way analysis of variance with the Holm-Sidak test used for post hoc comparisons. Graphical representation of the data was generated with commercially available software (Origin 7.5, OriginLab Corp., Northampton, Mass.). A P value of ≦0.05 was considered significant.

[2] = tested on: factor VII deficient plasma; experiment: Thrombelastography, factor VII deficient plasma; format: biochemical, human; details: 100 mmol CORM-2 vs control; FVII deficient plasma, 4 individuals
Protocol: Plasma deficient (<1% normal activity) in factor VIII (FVIII; 11 individuals), factor IX (FIX; 5 individuals), or factor VII (FVII; 4 individuals) was obtained from anonymous donors (George King Bio-Medical, Overland Park, Kans.) and was anticoagulated with sodium citrate. The final volume for all subsequently described plasma sample mixtures was […]. Sample composition consisted of […] of plasma, […] of tissue factor (0.1% final concentration in 0.9% NaCl; Diagnostica Stago, Asnieres, France), 3.6 mL of dimethyl sulfoxide (DMSO) or DMSO with CORM-2 ([…]; Sigma-Aldrich, St. Louis, Mo.), and 20 mL of […] CaCl2. […] (Motterlini et al. 2005). While CORM-2 decays slowly in DMSO, DMSO was added to the dry compound just prior to placement into the plasma mixture.
Plasma sample mixtures were placed in a disposable cup in a computer-controlled THROMBELASTOGRAPH® hemostasis system (Model 5000; Haemoscope Corp., Niles, Ill.), with addition of CaCl2 as the last step to initiate clotting. Data were collected until clot strength stabilized (maximum amplitude).
Statistical analyses. […] A paired student's t-test was used to analyze the effects of CORM-2 exposure in FVIII deficient individuals. The results of the FIX and FVII deficient groups were presented but not statistically analyzed secondary to the small number of individuals in each cohort. […] Statistical analyses and graphical representation of the data were generated with commercially available software (SigmaPlot 11.0; Systat Software Inc., San Jose, Calif.; CorelDRAW 12.0; Corel Corp., Ottawa, Ontario, Canada). A P value of less than 0.05 was considered significant.

## [C-]#[O+].[C-]#[O+].[C-]#[O+].[C-]#[O+].[C-]#[O+].[C-]#[O+].[Cl][Ru][Cl].[Cl][Ru][Cl] [CORM-2, tricarbonyldichlororuthenium (II) dimer]
[1]
  MRTG (maximum rate of thrombus generation): 13.7 ± 1.3 dynes/cm^2/sec
  TMRTG (time to maximum rate of thrombus generation): 188 ± 18 s
  TTG (total thrombus generation): 248 ± 17 dynes/cm^2
[2]
  effect on MRTG: an increase in MRTG and TTG in all FVII deficient plasma donors
  effect on TMRTG: an increase in TMRTG in all individuals tested
  effect on TTG: an increase in MRTG and TTG in all FVII deficient plasma donors

Source: patent publication US8697747B2, “Enhancing coagulation or reducing fibrinolysis” (THe UAB Research Foundation, priority 2009, dated 2014)
